From patent US20230348437A1, “COMPOUNDS, COMPOSITIONS AND METHODS” (Denali Therapeutics Inc., priority 2020, published 2023)

system: NLRP3 (IL-1β secretion from THP-1 cells); test: IL-1β secretion assay in 384-well plates, PMA differentiated THP-1 cells, LPS and nigericin stimulation; type: cell-based; conditions: Homo sapiens; THP-1 cells, PMA 5 ng/mL, LPS 25 ng/mL, nigericin, IL-1β ELISA, 384-well; read-out: Activity
Protocol: Compounds as provided herein were tested in the following assay. […] Freezing medium was made up of 90% FBS and 10% DMSO. THP-1 cells were removed from the liquid nitrogen and placed into a 37° C. water bath to thaw, until signs of ice dissipated. The cells were then added to 9 mL of warm cell culture medium and centrifuged for 5 minutes at 1000 rpm. The supernatant was discarded, and the cells were resuspended in new cell culture medium. The THP-1 cells were then split and cultured in the cell culture medium, being passaged every 2-3 days (5×10^5 cells/mL passaged every two days, 3×10^5 cells/mL passaged every three days). Cell density was maintained between 5×10^5-1.5×10^6 viable cells/mL.
PMA was dissolved in DMSO to make a stock solution at 5 mg/mL and stored in 10 µl aliquots at -20° C. for single use. PMA is added to normal growth medium. LPS was diluted with 1 mL of water solution to provide a 1 mg/mL stock solution and stored in 15 µl aliquots at -20° C. for single use. Nigericin is diluted in ice cold 100% ethanol to 5 mg/mL (6.7 mM) and stored in 75 µL aliquots at -20° C. for single use. […] The two control conditions used to qualify and normalize test compound dose-response curves were as follows: High Control = 25 ng/mL LPS, 5 µM Nigericin, 0.5% DMSO, Low Control = 25 ng/mL, LPS, 0.5% DMSO.
THP-1 cells were diluted to provide a suspension at a concentration of 1.0×10^6 cells/mL with the total volume of suspension required to enable the desired number of assay plates. The growth media was supplemented with PMA (5 ng/mL final concentration) and the cells were incubated at 37° C. under a humidified atmosphere of 5% CO2 for 40 h.
All media was carefully aspirated from each culture flask. The cells were washed carefully with 1x DPBS. The cells were then briefly digested with trypsin LE for 5 minutes at 23° C. and immediately resuspended in cell growth media. After resuspension, the cells were centrifuged at 1000 rpm for 3 minutes and the supernatant was discarded. The cells were resuspended in DPBS and once again centrifuged at 1000 rpm for 5 minutes. The supernatant was discarded and the cell pellet was resuspended in serum-free media supplemented with LPS (25 ng/mL final concentration) to enable the distribution of 30 K THP-1 cells within 45 µL of media into each well of 384-well PDL-coated plates. The 384-well plates were then incubated at 37° C. under a humidified atmosphere of 5% CO2 for 2 h. Following this period, test compounds were dispensed by Tecan across the desired concentration range with all wells normalized to a final 0.5 % DMSO concentration. The plates were then incubated at 37° C. under a humidified atmosphere of 5% CO2 for 1 h. Following this period, 5 µL of the […] nigericin stock solution was added to each of the appropriate wells and plates were centrifuged at 1000 rpm for 30 seconds. The plates were the immediately reintroduced to the incubator at 37° C. under a humidified atmosphere of 5% CO2 for 2 h. After this time, 35 µL/well of supernatant was collected and transferred into v-bottom plate and centrifuged at 1000 rpm for 1 minute. These supernatant aliquots were analyzed using an IL-Iβ detection kit as described below. If needed, the test samples could be snap frozen and stored at -80° C. until analyzed.
To prepare each ELISA plate, capture antibody (mAb Mt175) was diluted with PBS to a final concentration of 2 µg/mL and then 20 µL of this solution was added to each well of the ELISA plate. Each plate was allowed to incubate overnight at 4° C. The next day, the capture antibody solution was removed and discarded. […] Each ELISA plate was then allowed to incubate for 1 hour at 23° C. After this time, the blocking buffer was removed and discarded. Each ELISA plate was washed 4 times with PBST. During this time, the v-bottomed plates containing the supernatant aliquots from the assay run were centrifuged at 300 g for 5 minutes before transferring 15 µL/well of the supernatant sample to each ELISA plate. […]

| Structure (SMILES) | IC50 |
| --- | --- |
| CC(C)c1nn(CC(=O)Nc2ncc(F)cc2F)c(=O)cc1-c1cc(F)cc(F)c1 [Example 45] | 596 nM |
| O=C(Cn1nc(C2CC2)c(-c2cc(F)cc(F)c2)cc1=O)Nc1ncncc1F [Example 48, 2-[3-cyclopropyl-4-(3,5-difluorophenyl)-6-oxopyridazin-1-yl]-N-(5-fluoropyrimidin-4-yl)acetamide] | 1640 nM |
| Cc1ccc(F)c(-c2cc(=O)n(CC(=O)N[C@H]3C[C@@](C)(O)C3)nc2C(C)C)c1 [Example 23, 2-[4-(2-fluoro-5-methylphenyl)-6-oxo-3-propan-2-ylpyridazin-1-yl]-N-(cis-3-hydroxy-3-methylcyclobutyl)acetamide] | 1890 nM |
| O=C(Cn1nc(C(F)F)c(-c2cc(F)cc(F)c2)cc1=O)Nc1ncc(F)cn1 [Example 53, 2-[3-(difluoromethyl)-4-(3,5-difluorophenyl)-6-oxopyridazin-1-yl]-N-(5-fluoropyrimidin-2-yl)acetamide] | 2770 nM |
| CC(C)c1nn(CC(=O)Nc2ncncc2F)c(=O)cc1-c1cccc2ccncc12 [Example 33] | 3210 nM |
| CCOc1cccc(-c2cc(=O)n(CC(=O)N[C@H]3C[C@@](C)(O)C3)nc2C(C)C)c1 [Example 28, 2-[4-(3-ethoxyphenyl)-6-oxo-3-propan-2-ylpyridazin-1-yl]-N-(cis-3-hydroxy-3-methylcyclobutyl)acetamide] | 8470 nM |
| CCN1CCC[C@@H](NC(=O)Cn2nc(C(C)C)c(-c3cc(F)cc(C4CC4)c3)cc2=O)C1 [Example 30, 2-[4-(3-cyclopropyl-5-fluorophenyl)-6-oxo-3-propan-2-ylpyridazin-1-yl]-N-[(3R)-1-ethylpiperidin-3-yl]acetamide] | 1300 nM |
| O=C(Cn1nc(CC(F)(F)F)c(-c2cc(F)cc(F)c2)cc1=O)Nc1ncncc1F [Example 50, 2-[4-(3,5-difluorophenyl)-6-oxo-3-(2,2,2-trifluoroethyl)pyridazin-1-yl]-N-(5-fluoropyrimidin-4-yl)acetamide] | 1640 nM |
| CC(C)c1nn(CC(=O)Nc2ncncc2F)c(=O)cc1-c1cc(F)cc(C2CC2(F)F)c1 (centres unmarked) [Example 47, 2-[4-[3-(2,2-difluorocyclopropyl)-5-fluorophenyl]-6-oxo-3-propan-2-ylpyridazin-1-yl]-N-(5-fluoropyrimidin-4-yl)acetamide] | 8450 nM |
| CC(C)c1nn(CC(=O)Nc2ncncc2F)c(=O)cc1-c1cc(F)cc(F)c1 [Example 42, 2-[4-(3,5-difluorophenyl)-6-oxo-3-propan-2-ylpyridazin-1-yl]-N-(5-fluoropyrimidin-4-yl)acetamide] | 320 nM |
| Cc1cccc(-c2cc(=O)n(CC(=O)N[C@H]3C[C@@](C)(O)C3)nc2C(C)C)c1F [Example 22, 2-[4-(2-fluoro-3-methylphenyl)-6-oxo-3-propan-2-ylpyridazin-1-yl]-N-(cis-3-hydroxy-3-methylcyclobutyl)acetamide] | 1570 nM |
| O=C(Cn1nc(C2CC2(F)F)c(-c2cc(F)cc(F)c2)cc1=O)Nc1ncncc1F (centres unmarked) [Example 49, 2-[3-(2,2-difluorocyclopropyl)-4-(3,5-difluorophenyl)-6-oxopyridazin-1-yl]-N-(5-fluoropyrimidin-4-yl)acetamide] | 3240 nM |
| CCN1CCC[C@@H](NC(=O)Cn2nc(C3CCC3)c(-c3cccc(F)c3)cc2=O)C1 [Example 40, 2-[3-cyclobutyl-4-(3-fluorophenyl)-6-oxopyridazin-1-yl]-N-[(3R)-1-ethylpiperidin-3-yl]acetamide] | 1440 nM |
| CC(C)c1nn(CC(=O)N[C@H]2C[C@@](C)(O)C2)c(=O)cc1-c1cc(F)cc(F)c1 [Example 21, 2-[4-(3,5-difluorophenyl)-6-oxo-3-propan-2-ylpyridazin-1-yl]-N-(cis-3-hydroxy-3-methylcyclobutyl)acetamide] | 902 nM |
| CC(C)c1nn(CC(=O)Nc2ncncc2F)c(=O)c(C(F)F)c1-c1cccc(F)c1 [Example 37, 2-[5-(difluoromethyl)-4-(3-fluorophenyl)-6-oxo-3-propan-2-ylpyridazin-1-yl]-N-(5-fluoropyrimidin-4-yl)acetamide] | 30100 nM |
| CC(C)c1nn(CC(=O)Nc2ncncc2F)c(=O)cc1-c1cc(F)cc(Cl)c1 [Example 46, 2-[4-(3-chloro-5-fluorophenyl)-6-oxo-3-propan-2-ylpyridazin-1-yl]-N-(5-fluoropyrimidin-4-yl)acetamide] | 637 nM |
| Cc1c(-c2cccc(F)c2)c(C(C)C)nn(CC(=O)Nc2ncncc2F)c1=O [Example 36, 2-[4-(3-fluorophenyl)-5-methyl-6-oxo-3-propan-2-ylpyridazin-1-yl]-N-(5-fluoropyrimidin-4-yl)acetamide] | 1000 nM |
| CCc1nn(CC(=O)Nc2ncncc2F)c(=O)c(C)c1-c1cccc(F)c1 [Example 52, 2-[3-ethyl-4-(3-fluorophenyl)-5-methyl-6-oxopyridazin-1-yl]-N-(5-fluoropyrimidin-4-yl)acetamide] | 4360 nM |
| CCOc1nn(CC(=O)N[C@H]2C[C@@](C)(O)C2)c(=O)cc1-c1ccccc1 [Example 34] | 29500 nM |
| CCN1CCC[C@@H](NC(=O)Cn2nc(C(C)C)c(-c3cc(F)cc(F)c3F)cc2=O)C1 [Example 32, N-[(3R)-1-ethylpiperidin-3-yl]-2-[6-oxo-3-propan-2-yl-4-(2,3,5-trifluorophenyl)pyridazin-1-yl]acetamide] | 649 nM |
| CC(CF)c1nn(CC(=O)Nc2ncc(F)cn2)c(=O)cc1-c1cc(F)cc(F)c1 (centres unmarked) [Example 55, 2-[4-(3,5-difluorophenyl)-3-(1-fluoropropan-2-yl)-6-oxopyridazin-1-yl]-N-(5-fluoropyrimidin-2-yl)acetamide] | 1060 nM |
| Cc1ccccc1-c1cc(=O)n(CC(=O)N[C@H]2C[C@@](C)(O)C2)nc1C(C)C [Example 26] | 6660 nM |
| CC(C)c1nn(C2(C(=O)Nc3ncccn3)CC2)c(=O)cc1-c1cc(F)cc(F)c1 [Example 51, 1-[4-(3,5-difluorophenyl)-3-isopropyl-6-oxo-pyridazin-1-yl]-N-pyrimidin-2-yl-cyclopropanecarboxamide] | 1140 nM |
| CC(C)c1nn(CC(=O)Nc2ncccc2F)c(=O)cc1-c1cccc(F)c1 [Example 41, 2-[4-(3-fluorophenyl)-6-oxo-3-propan-2-ylpyridazin-1-yl]-N-(3-fluoropyridin-2-yl)acetamide] | 7210 nM |
| CC(C)c1nn(CC(=O)Nc2ncc(F)cn2)c(=O)cc1-c1cncc(F)c1 [Example 54, 2-[4-(5-fluoropyridin-3-yl)-6-oxo-3-propan-2-ylpyridazin-1-yl]-N-(5-fluoropyrimidin-2-yl)acetamide] | 6980 nM |
| CCN1CCC[C@@H](NC(=O)Cn2nc(C(C)C)c(-c3cccc(C4CCC4)c3)cc2=O)C1 [Example 31, 2-[4-(3-cyclobutylphenyl)-6-oxo-3-propan-2-ylpyridazin-1-yl]-N-[(3R)-1-ethylpiperidin-3-yl]acetamide] | 6980 nM |
| CC(C)c1nn(CC(=O)N[C@H]2C[C@@](C)(O)C2)c(=O)cc1-c1cc(F)ccc1F [Example 24, 2-[4-(2,5-difluorophenyl)-6-oxo-3-propan-2-ylpyridazin-1-yl]-N-(cis-3-hydroxy-3-methylcyclobutyl)acetamide] | 1900 nM |
| CCN1CCC[C@@H](NC(=O)Cn2nc(C(C)C)c(-c3cccc4ccccc34)cc2=O)C1 [Example 29] | 874 nM |
| CCc1c(-c2cccc(F)c2)c(C(C)C)nn(CC(=O)Nc2ncncc2F)c1=O [Example 35, 2-[5-ethyl-4-(3-fluorophenyl)-6-oxo-3-propan-2-ylpyridazin-1-yl]-N-(5-fluoropyrimidin-4-yl)acetamide] | 35300 nM |
